One data set relates to TZM-bl cells. In words: Cytotoxicity in TZM-bl cells (XTT). The class given is cell-based. On the procedure:
The cytotoxicity of small molecules in TZM-bl cells was measured by a colorimetric method using XTT (sodium 3′-(1-(phenylamino)-carbonyl)-3,4-tetrazolium-bis(4-methoxy-6-nitro)benzenesulfonic acid hydrate), a light yellowish tetrazolium dye. Briefly, 100 μl of a compound at graded concentrations was added to equal volume of cells (10^5/ml) in wells of 96-well plates followed by incubation at 37° C. for 3 days and addition of XTT (PolySciences, Inc., Warrington, Pa.).
Background: Tetrazolium dyes change colour on reduction, which living cells bring about.

The subject of the next data set is MT-2 cells. In words: Cytotoxicity in MT-2 cells (XTT). Type of data set: cell-based. On the procedure:
Cytotoxicity of small molecules in MT-2 cells and PBMC was measured by the XTT ((sodium 3′-(1-(phenylamino)-carbonyl)-3,4-tetrazolium-bis(4-methoxy-6-nitro)benzene-sulfonic acid hydrate)) method. Briefly, for MT-2 cells, 100 μl of a small molecule at graded concentrations was added to an equal volume of cells (10^5 cells/ml) in 96-well plates followed by incubation at 37° C. for four days, which ran parallel with the neutralization assay in MT-2 (except medium was added instead of virus). In the case of PBMC, 5×10^5 cells/ml was used and the cytotoxicity was measured after seven days. […] The percentage cytotoxicity and the CC50 values were calculated as described above.

For data set [1], the system named is laboratory-adapted HIV-1 IIIB strain. Conditions: read-out: MT-2 Cells IC50 (μM ± SD); multi-cycle assay, MT-2 cells, HIV-1 IIIB.
Method: In brief, 1×10^4 MT-2 cells were infected with HIV-1 at 100 TCID50 (50% tissue culture infective dose) (0.01MOI) in 200 μl medium in the presence or absence of small molecules at graded concentrations and incubated overnight. The culture supernatants were then removed and replaced with fresh media. On the fourth day post-infection, 100 μl of culture supernatants were collected from each well, mixed with equal volume of 5% Triton X-100 and tested for p24 antigen by sandwich-ELISA. The percent inhibition of p24 production and IC50 values were calculated by the GraphPad Prism software (GraphPad Software Inc.).
[2] abbreviates: TZM-bl cells, XTT, 3 days, read-out: TZM-bl cells CC50 (μM ± SD).
[3] abbreviates: MT-2 cells, XTT, four days, read-out: MT-2 Cells CC50.
Where [4] appears, read: at the dose given as CC50 bound.

23 compounds from patent US20140377219A1, “HIV INHIBITORS” (New york Blood Center, Inc., priority 2011, published 2014) can be followed below.

Where a name gives a salt, the structure may show the parent alone. Read-outs that look alike come from different tables or passages of the source. A value given as a limit tells only on which side of the number the result lay.

For orientation: CC50 means the concentration giving 50% cytotoxicity. As usually defined, the IC50 is the concentration that gives 50% inhibition. For the compound `Cc1nc(C(NC(=O)C(=O)Nc2ccc(Cl)cc2)C2CCCNC2)sc1CO` (stereo not shown) [Compound 7, N^1-(4-chlorophenyl)-N^2-((5-(hydroxymethyl)-4-methylthiazol-2-yl)(piperidin-3-yl)methyl)oxalamide.2HCl], the values for the cytotoxic concentration (CC50) in the data set with TZM-bl cells and in the data set on MT-2 cells were roughly 60.2 µM and greater than 81 µM, respectively. Besides, the IC50 in data set [1] turned out to be 12 ± 1.1 µM.

Turning to `Cc1nc(C(NC(=O)C(=O)Nc2ccc(Cl)cc2)C2CCNCC2)sc1CO` (stereo not shown) [Compound 8, N^1-(4-chlorophenyl)-N^2-((5-(hydroxymethyl)-4-methylthiazol-2-yl)(piperidin-4-yl)methyl)oxalamide.2HCl], the figures for the CC50 in the data set on TZM-bl cells and with MT-2 cells were roughly 81 µM and greater than 81 µM, respectively. Besides, the IC50 in data set [1] amounted to 29.8 ± 3.5 µM.

On to `Cc1nc(C(NC(=O)C(=O)Nc2ccc(Cl)cc2)C2CCCCN2)sc1CCO.O=CO` (stereo not shown) [Compound 9, N^1-(4-chlorophenyl)-N^2-((5-(2-hydroxyethyl)-4-methylthiazol-2-yl)(piperidin-2-yl)methyl)oxalamide.HCOOH], for which, in the data set on MT-2 cells, the “% toxicity at that dose (number in parenthesis), MT-2 cells” value turned out to be 0% and the CC50 is greater than 62 µM. Further, in data set [1], the concentration for half-maximal inhibition (IC50) was 4.2 ± 0.2 µM.

Take `Cc1nc(C(NC(=O)C(=O)Nc2ccc(Cl)cc2)C2CCCNC2)sc1CCO` (stereo not shown) [Compound 10, N^1-(4-chlorophenyl)-N^2-((5-(2-hydroxyethyl)-4-methylthiazol-2-yl)(piperidin-3-yl)methyl)oxalamide.2HCl]: the CC50 is roughly 59.4 µM in the data set on TZM-bl cells and greater than 78.5 µM in the data set with MT-2 cells. For the same compound, the IC50 in data set [1] was 13.1 ± 2.4 µM.

Take `Cc1nc(C(NC(=O)C(=O)Nc2ccc(Cl)cc2)C2CCNCC2)sc1CCO` (stereo not shown) [Compound 11, N^1-(4-chlorophenyl)-N^2-((5-(2-hydroxyethyl)-4-methylthiazol-2-yl)(piperidin-4-yl)methyl)oxalamide.2HCl]: the CC50 was roughly 85.4 µM in the data set on TZM-bl cells and greater than 78.5 µM in the data set on MT-2 cells. Also, the IC50 in data set [1] came out at 30.5 ± 3.4 µM.

In the case of `Cc1nc(C(NC(=O)C(=O)Nc2ccc(Cl)cc2)C2CCCCN2C)sc1CCO` (stereo not shown) [Compound 12, N^1-(4-chlorophenyl)-N^2-((5-(2-hydroxyethyl)-4-methylthiazol-2-yl)(1-methylpiperidin-2-yl)methyl)oxalamide], the CC50 in the data set on TZM-bl cells (setting [2]) turned out to be 36 ± 3.3 µM.

Regarding `Cc1nc(C(NC(=O)C(=O)Nc2ccc(Cl)cc2)C2CCCN2)sc1CO` (stereo not shown) [Compound 14, N^1-(4-chlorophenyl)-N^2-((5-(hydroxymethyl)-4-methylthiazol-2-yl)(pyrrolidin-2-yl)methyl)oxalamide.HCOOH], the CC50 in the data set with TZM-bl cells is 12.4 ± 0.7 µM; in the data set with MT-2 cells, roughly 45 µM. In addition, the IC50 in data set [1] is 15.4 ± 2.6 µM.

In the case of `Cc1nc(C(NC(=O)C(=O)Nc2ccc(Cl)cc2)C2CCCN2)sc1CCO` (stereo not shown) [Compound 15, N^1-(4-chlorophenyl)-N^2-((5-(2-hydroxyethyl)-4-methylthiazol-2-yl)(pyrrolidin-2-yl)methyl)oxalamide.HCOOH], the results for the half-maximal cytotoxic concentration (CC50) in the data set on TZM-bl cells and in the data set with MT-2 cells were roughly 4.9 µM and roughly 42 µM, respectively. Further, the IC50 in data set [1] was determined as 16.2 ± 1.7 µM.

With `CNCC(NC(=O)C(=O)Nc1ccc(Cl)cc1)c1nc(C)c(CCO)s1` (stereo not shown) [Compound 16, N^1-(4-chlorophenyl)-N^2-(1-(5-(2-hydroxyethyl)-4-methylthiazol-2-yl)-2-(methylamino)ethyl)oxalamide.2HCl], the CC50 with TZM-bl cells was 16.6 ± 1 µM; in the data set with MT-2 cells, greater than 43 µM. In data set [1], the IC50 amounted to 24.3 ± 2.2 µM.

In the case of `COC(=O)[C@@H]1C[C@@H](NC(=O)C(=O)Nc2ccc(Cl)cc2)[C@H](c2ccccc2)N1` [Compound 18, (2S,4R,5S)-methyl 4-(2-(4-chlorophenylamino)-2-oxoacetamido)-5-phenyl pyrrolidine-2-carboxylate], the CC50 in the data set on TZM-bl cells (setting [2]) and in the data set on MT-2 cells (setting [3]) was greater than 99.6 µM in each case. The IC50 in data set [1] is greater than 24.9 µM.

`Cc1nc(C(NC(=O)C(=O)Nc2ccc(C(F)(F)F)cc2)C2CCCCN2)sc1CO.Cl.Cl` (stereo not shown) [Compound 20, N^1-((5-(hydroxymethyl)-4-methylthiazol-2-yl)(piperidin-2-yl)methyl)-N^2-(4-(trifluoromethyl)phenyl)oxalamide.2HCl]: the CC50 with TZM-bl cells (setting [2]) and in the data set on MT-2 cells (setting [3]) was greater than 75.5 µM in each case. Moreover, the “% toxicity at that dose (number in parenthesis), TZM-bl cells” value (“% toxicity at that dose … TZM-bl cells” for short) in the data set on TZM-bl cells (setting [4]) turned out to be 10%. Moreover, the IC50 in data set [1] stood at 4.6 ± 0.3 µM.

Take `Cc1nc(C(NC(=O)C(=O)Nc2ccc(F)cc2F)C2CCCCN2)sc1CO` (stereo not shown) [Compound 21, N^1-(2,4-difluorophenyl)-N^2-((5-(hydroxymethyl)-4-methylthiazol-2-yl)(piperidin-2-yl)methyl)oxalamide.HCl]: the CC50 was greater than 87 µM in the data set on TZM-bl cells (setting [2]) and greater than 110 µM in the data set on MT-2 cells (setting [3]). Also, the IC50 in data set [1] is roughly 110 µM.

Take `Cc1nc(C(NC(=O)C(=O)Nc2ccc(F)c(F)c2)C2CCCCN2)sc1CO.Cl` (stereo not shown) [Compound 22, N^1-(3,4-difluorophenyl)-N^2-((5-(hydroxymethyl)-4-methylthiazol-2-yl)(piperidin-2-yl)methyl)oxalamide.HCl]: the CC50 in the data set on TZM-bl cells (setting [2]) and in the data set with MT-2 cells (setting [3]) was greater than 87 µM in each case. The “% toxicity at that dose … TZM-bl cells” value in the data set on TZM-bl cells (setting [4]) amounted to 0%. In addition, in data set [1], the 50% inhibitory concentration (IC50) came to 14 ± 3.8 µM.

For `CC(=O)c1ccc(NC(=O)C(=O)NC(c2nc(C)c(CO)s2)C2CCCCN2)cc1` (stereo not shown) [Compound 23, N^1-(4-acetylphenyl)-N^2-((5-(hydroxymethyl)-4-methylthiazol-2-yl)(piperidin-2-yl)methyl)oxalamide.HCl], the CC50 in the data set on TZM-bl cells is greater than 86 µM; in the data set with MT-2 cells it was greater than 107 µM. In addition, the IC50 in data set [1] was roughly 107 µM.

For `Cc1nc(C(NC(=O)C(=O)Nc2ccc(F)c(Cl)c2)C2CCCCN2)sc1CO.Cl.Cl` (stereo not shown) [Compound 24, N^1-(3-chloro-4-fluorophenyl)-N^2-((5-(hydroxymethyl)-4-methylthiazol-2-yl)(piperidin-2-yl)methyl)oxalamide.2HCl], in the data set with TZM-bl cells, the “% toxicity at that dose … TZM-bl cells” value is reported as >77.8 (0%) and the CC50 is greater than 77.8 µM. The 50% cytotoxic concentration (CC50) in the data set on MT-2 cells is greater than 77.8 µM. In data set [1], the IC50 amounted to 9.5 ± 1.4 µM.

Regarding `Cc1nc(C(NC(=O)C(=O)Nc2ccc(F)cc2)C2CCCCN2)sc1CO.Cl` (stereo not shown) [Compound 25, N^1-(4-fluorophenyl)-N^2-((5-(hydroxymethyl)-4-methylthiazol-2-yl)(piperidin-2-yl)methyl)oxalamide.HCl], the CC50 is greater than 90 µM in the data set with TZM-bl cells and greater than 113 µM in the data set with MT-2 cells. For the same compound, in the data set with TZM-bl cells (setting [4]), the “% toxicity at that dose … TZM-bl cells” value is 0%. Moreover, the IC50 in data set [1] was 48 ± 5.5 µM.

Regarding `Cc1ccc(NC(=O)C(=O)NC(c2nc(C)c(CO)s2)C2CCCCN2)c(F)c1` (stereo not shown) [Compound 26, N^1-(2-fluoro-4-methylphenyl)-N^2-((5-(hydroxymethyl)-4-methylthiazol-2-yl)(piperidin-2-yl)methyl)oxalamide.HCl], the CC50 in the data set with TZM-bl cells (setting [2]) was greater than 88 µM; in the data set on MT-2 cells (setting [3]) it was greater than 109 µM. Besides, the IC50 in data set [1] is roughly 66 µM.

Take `Cc1nc(C(NC(=O)C(=O)NC2CCCCCC2)C2CCCCN2)sc1CO` (stereo not shown) [Compound 29, N^1-cycloheptyl-N^2-((5-(hydroxymethyl)-4-methylthiazol-2-yl)(piperidin-2-yl)methyl)oxalamide.HCl]: the CC50 in the data set with TZM-bl cells (setting [2]) and in the data set with MT-2 cells (setting [3]) was greater than 90 µM throughout. For the same compound, the IC50 in data set [1] was 39.3 ± 5 µM.

As for `Cc1nc(C(NC(=O)C(=O)Nc2ccc(Cl)cc2)C2CCCCN2)sc1CCO.O=CO` (stereo not shown) [Compound 30, N^1-(4-chlorophenyl)-N^2-((5-(2-hydroxyethyl)-4-methylthiazol-2-yl)(piperidin-2-yl)methyl)oxalamide.HCOOH], the 50% cytotoxic concentration (CC50) in the data set on TZM-bl cells (setting [2]) is 32.8 ± 0.6 µM; in the data set with MT-2 cells (setting [3]), greater than 62 µM. Further, the “% toxicity at that dose (number in parenthesis), MT-2 cells” value in the data set with MT-2 cells (setting [4]) was found to be 0%. For the same compound, the IC50 in data set [1] came out at 4.2 ± 0.3 µM.

As for `Cc1nc(C(NC(=O)C(=O)Nc2ccc(C(F)(F)F)cc2)C2CCCCN2)sc1CCO.Cl.Cl` (stereo not shown) [Compound 31, N^1-((5-(2-hydroxyethyl)-4-methylthiazol-2-yl)(piperidin-2-yl)methyl)-N^2-(4-(trifluoromethyl)phenyl)oxalamide.2HCl], the CC50 is greater than 74 µM with TZM-bl cells (setting [2]) and greater than 39 µM in the data set on MT-2 cells (setting [3]). Also, the “% toxicity at that dose … TZM-bl cells” value in the data set with TZM-bl cells (setting [4]) is on record as 35%. Also, the half-inhibitory concentration (IC50) in data set [1] amounted to 17.4 ± 5.7 µM.

For `Cc1nc(C(NC(=O)C(=O)Nc2ccc(F)cc2F)C2CCCCN2)sc1CCO` (stereo not shown) [Compound 32, N^1-(2,4-difluorophenyl)-N^2-((5-(2-hydroxyethyl)-4-methylthiazol-2-yl)(piperidin-2-yl)methyl)oxalamide.HCl], the CC50 is greater than 84 µM with TZM-bl cells (setting [2]) and greater than 105 µM with MT-2 cells. The IC50 in data set [1] is greater than 105 µM.

For the compound `Cc1nc(C(NC(=O)C(=O)Nc2ccc(F)c(F)c2)C2CCCCN2)sc1CCO.Cl.Cl` (stereo not shown) [Compound 33, N^1-(3,4-difluorophenyl)-N^2-((5-(2-hydroxyethyl)-4-methylthiazol-2-yl)(piperidin-2-yl)methyl)oxalamide.2HCl], the half-maximal cytotoxic concentration (CC50) with TZM-bl cells (setting [2]) and with MT-2 cells (setting [3]) was greater than 78.2 µM in each case. Moreover, the “% toxicity at that dose … TZM-bl cells” value with TZM-bl cells (setting [4]) was 10%. In addition, in data set [1], the IC50 was found to be 24.1 ± 4.6 µM.

Turning to `Cc1nc(C(NC(=O)C(=O)Nc2ccc(F)cc2)C2CCCCN2)sc1CCO` (stereo not shown) [Compound 36, N^1-(4-fluorophenyl)-N^2-((5-(2-hydroxyethyl)-4-methylthiazol-2-yl)(piperidin-2-yl)methyl)oxalamide.HCl], the CC50 in the data set on TZM-bl cells is greater than 88 µM; in the data set with MT-2 cells, roughly 109 µM.
